Measured values as given in PubChem BioAssay (NCI).
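Test compounds were applied to cells in 96-well plates for 48 hours at 5 doses. Abbreviation: GI50, concentration required for 50% inhibition of growth. TGI is the concentration that stops growth completely.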

Tests used:
Experiment in all cases: NCI-60 cell line screen, 48 h
K-562 leukemia = test system: K-562 leukemia
NCI-H23 lung = test system: NCI-H23 lung
MCF7 breast = test system: MCF7 breast
NCI-H226 lung = test system: NCI-H226 lung
NCI-H522 lung = test system: NCI-H522 lung
CAKI-1 renal = test system: CAKI-1 renal
SK-OV-3 ovarian = test system: SK-OV-3 ovarian
MDA-MB-231 breast = test system: MDA-MB-231 breast
COLO 205 colon = test system: COLO 205 colon
BT-549 breast = test system: BT-549 breast
RXF 393 renal = test system: RXF 393 renal
SW-620 colon = test system: SW-620 colon
SN12C renal = test system: SN12C renal
HT29 colon = test system: HT29 colon
ACHN renal = test system: ACHN renal
U251 CNS = test system: U251 CNS
IGROV1 ovarian = test system: IGROV1 ovarian
HOP-92 NSCLC = test system: HOP-92 NSCLC
KM12 colon = test system: KM12 colon
SK-MEL-5 melanoma = test system: SK-MEL-5 melanoma
OVCAR-5 ovarian = test system: OVCAR-5 ovarian
SK-MEL-28 melanoma = test system: SK-MEL-28 melanoma
HCT-116 colon = test system: HCT-116 colon
SF-268 CNS = test system: SF-268 CNS
OVCAR-4 ovarian = test system: OVCAR-4 ovarian
NCI-H460 lung = test system: NCI-H460 lung
UO-31 renal = test system: UO-31 renal
SNB-75 CNS = test system: SNB-75 CNS
HCC-2998 colon = test system: HCC-2998 colon
TK-10 renal = test system: TK-10 renal
UACC-257 melanoma = test system: UACC-257 melanoma
HL-60(TB) leukemia = test system: HL-60(TB) leukemia
SF-539 CNS = test system: SF-539 CNS
SR leukemia = test system: SR leukemia
MALME-3M melanoma = test system: MALME-3M melanoma
SNB-19 CNS = test system: SNB-19 CNS
A498 renal = test system: A498 renal
SF-295 CNS = test system: SF-295 CNS
786-0 renal = test system: 786-0 renal
RPMI-8226 leukemia = test system: RPMI-8226 leukemia
M14 melanoma = test system: M14 melanoma
DU-145 prostate = test system: DU-145 prostate
HOP-62 NSCLC = test system: HOP-62 NSCLC
MDA-MB-435 = test system: MDA-MB-435
HS 578T breast = test system: HS 578T breast
T-47D breast = test system: T-47D breast
CCRF-CEM leukemia = test system: CCRF-CEM leukemia
OVCAR-3 ovarian = test system: OVCAR-3 ovarian
HCT-15 colon = test system: HCT-15 colon
MOLT-4 leukemia = test system: MOLT-4 leukemia
OVCAR-8 ovarian = test system: OVCAR-8 ovarian
A549 NSCLC = test system: A549 NSCLC
LOX IMVI melanoma = test system: LOX IMVI melanoma
UACC-62 melanoma = test system: UACC-62 melanoma
NCI/ADR-RES ovarian = test system: NCI/ADR-RES ovarian
EKVX NSCLC = test system: EKVX NSCLC
SK-MEL-2 melanoma = test system: SK-MEL-2 melanoma

## CN1CCc2c(c3ccccc3c3ccccc23)C1
K-562 leukemia
  GI50: 3.59 µM
  TGI: 14.6 µM
NCI-H23 lung
  GI50: 5.24 µM
  TGI: 21.7 µM
MCF7 breast
  GI50: 3.63 µM
  TGI: 13.6 µM
NCI-H226 lung
  GI50: 3.77 µM
  TGI: 29.3 µM
NCI-H522 lung
  GI50: 2.76 µM
  TGI: 8.49 µM
CAKI-1 renal
  GI50: 4.12 µM
  TGI: 18.5 µM
SK-OV-3 ovarian
  GI50: 8.86 µM
  TGI: 44.2 µM
MDA-MB-231 breast
  GI50: 8.62 µM
  TGI: 32.2 µM
COLO 205 colon
  GI50: 3.32 µM
  TGI: 11.1 µM
BT-549 breast
  GI50: 12.4 µM
  TGI: 29 µM
RXF 393 renal
  GI50: 4.18 µM
  TGI: 17.1 µM
SW-620 colon
  GI50: 3.59 µM
  TGI: 15.3 µM
SN12C renal
  GI50: 3.74 µM
  TGI: 27.6 µM
HT29 colon
  GI50: 4.23 µM
  TGI: 16.8 µM
ACHN renal
  GI50: 3.6 µM
  TGI: 14.5 µM
U251 CNS
  GI50: 3.85 µM
  TGI: 16.2 µM
IGROV1 ovarian
  GI50: 4.45 µM
  TGI: 16.3 µM
HOP-92 NSCLC
  GI50: 3.31 µM
  TGI: 16.7 µM
KM12 colon
  GI50: 4.91 µM
  TGI: 16.8 µM
SK-MEL-5 melanoma
  GI50: 2.97 µM
  TGI: 11.4 µM
OVCAR-5 ovarian
  GI50: 10.9 µM
  TGI: 38.1 µM
SK-MEL-28 melanoma
  GI50: 4.75 µM
  TGI: 18.9 µM
HCT-116 colon
  GI50: 3.93 µM
  TGI: 13.5 µM
SF-268 CNS
  GI50: 6.46 µM
  TGI: 28 µM
OVCAR-4 ovarian
  GI50: 10.3 µM
  TGI: 40.2 µM
NCI-H460 lung
  GI50: 3.67 µM
  TGI: 13.6 µM
UO-31 renal
  GI50: 3.26 µM
  TGI: 17.2 µM
SNB-75 CNS
  GI50: 6.14 µM
  TGI: 19.9 µM
HCC-2998 colon
  GI50: 5.81 µM
  TGI: 20.2 µM
TK-10 renal
  GI50: 4.27 µM
  TGI: 15.4 µM
UACC-257 melanoma
  GI50: 2.87 µM
  TGI: 8.72 µM
HL-60(TB) leukemia
  GI50: 3.32 µM
  TGI: 10.2 µM
SF-539 CNS
  GI50: 5.1 µM
  TGI: 18.1 µM
SR leukemia
  GI50: 3.44 µM
  TGI: 15.6 µM
MALME-3M melanoma
  GI50: 3.34 µM
  TGI: 11.6 µM
SNB-19 CNS
  GI50: 4.38 µM
  TGI: 39.1 µM
A498 renal
  GI50: 1.81 µM
  TGI: 7.41 µM
SF-295 CNS
  GI50: 5.37 µM
  TGI: 33.6 µM
786-0 renal
  GI50: 6.23 µM
  TGI: 21.3 µM
RPMI-8226 leukemia
  GI50: 3.66 µM
  TGI: 12.7 µM
M14 melanoma
  GI50: 4.34 µM
  TGI: 16.7 µM
DU-145 prostate
  GI50: 5.28 µM
  TGI: 20.5 µM
HOP-62 NSCLC
  GI50: 7.11 µM
  TGI: 26.1 µM
MDA-MB-435
  GI50: 4.47 µM
  TGI: 17.3 µM
HS 578T breast
  GI50: 3.29 µM
  TGI: 17.8 µM
T-47D breast
  GI50: 5.68 µM
  TGI: 26.7 µM
CCRF-CEM leukemia
  GI50: 4.62 µM
  TGI: 21.5 µM
OVCAR-3 ovarian
  GI50: 9.92 µM
  TGI: 25.6 µM
HCT-15 colon
  GI50: 4.43 µM
  TGI: 51.9 µM
MOLT-4 leukemia
  GI50: 3.78 µM
  TGI: 19.9 µM
OVCAR-8 ovarian
  GI50: 4.46 µM
  TGI: 43.2 µM
A549 NSCLC
  GI50: 3.25 µM
  TGI: 18.5 µM
LOX IMVI melanoma
  GI50: 3.17 µM
  TGI: 11.2 µM
UACC-62 melanoma
  GI50: 4.12 µM
  TGI: 16.1 µM
NCI/ADR-RES ovarian
  GI50: 4.58 µM
  TGI: 25.3 µM

## O=C(N/N=C/c1ccccc1O)c1ccccc1O
K-562 leukemia
  GI50: 2.62 µM
  TGI: > 100 µM
NCI-H23 lung
  GI50: 2.9 µM
  TGI: > 100 µM
MCF7 breast
  GI50: 0.337 µM
  TGI: > 100 µM
NCI-H226 lung
  GI50: 2.43 µM
  TGI: > 100 µM
NCI-H522 lung
  GI50: 0.303 µM
  TGI: 17.9 µM
CAKI-1 renal
  GI50: 0.488 µM
  TGI: > 100 µM
SK-OV-3 ovarian
  GI50: 1.75 µM
  TGI: > 100 µM
MDA-MB-231 breast
  GI50: 0.676 µM
  TGI: > 100 µM
COLO 205 colon
  GI50: 3.53 µM
  TGI: > 100 µM
BT-549 breast
  GI50: 4.44 µM
  TGI: > 100 µM
RXF 393 renal
  GI50: 1.49 µM
  TGI: > 100 µM
SW-620 colon
  GI50: 0.877 µM
  TGI: > 100 µM
SN12C renal
  GI50: 1.44 µM
  TGI: > 100 µM
HT29 colon
  GI50: 11.6 µM
  TGI: > 100 µM
ACHN renal
  GI50: 0.68 µM
  TGI: > 100 µM
U251 CNS
  GI50: 0.926 µM
  TGI: > 100 µM
IGROV1 ovarian
  GI50: 0.794 µM
  TGI: > 100 µM
HOP-92 NSCLC
  GI50: 0.804 µM
  TGI: > 100 µM
KM12 colon
  GI50: 0.766 µM
  TGI: > 100 µM
SK-MEL-5 melanoma
  GI50: 1.08 µM
  TGI: 12.8 µM
OVCAR-5 ovarian
  GI50: 4.96 µM
  TGI: > 100 µM
SK-MEL-28 melanoma
  GI50: 1.92 µM
  TGI: > 100 µM
EKVX NSCLC
  GI50: 2.23 µM
  TGI: > 100 µM
HCT-116 colon
  GI50: 0.325 µM
  TGI: > 100 µM
SF-268 CNS
  GI50: 0.802 µM
  TGI: > 100 µM
OVCAR-4 ovarian
  GI50: 0.297 µM
  TGI: > 100 µM
NCI-H460 lung
  GI50: 0.514 µM
  TGI: > 100 µM
SK-MEL-2 melanoma
  GI50: 1.03 µM
  TGI: > 100 µM
UO-31 renal
  GI50: 3.12 µM
  TGI: > 100 µM
SNB-75 CNS
  GI50: 0.39 µM
  TGI: > 100 µM
HCC-2998 colon
  GI50: 1.91 µM
  TGI: > 100 µM
TK-10 renal
  GI50: 0.518 µM
  TGI: > 100 µM
UACC-257 melanoma
  GI50: 0.434 µM
  TGI: > 100 µM
SF-539 CNS
  GI50: 1.74 µM
  TGI: > 100 µM
SR leukemia
  GI50: 1.74 µM
  TGI: > 100 µM
MALME-3M melanoma
  GI50: 12.6 µM
  TGI: > 100 µM
SNB-19 CNS
  GI50: 2.69 µM
  TGI: > 100 µM
A498 renal
  GI50: 2.57 µM
  TGI: > 100 µM
SF-295 CNS
  GI50: 1.27 µM
  TGI: > 100 µM
786-0 renal
  GI50: 1.14 µM
  TGI: > 100 µM
RPMI-8226 leukemia
  GI50: 1.7 µM
  TGI: > 100 µM
DU-145 prostate
  GI50: 0.847 µM
  TGI: > 100 µM
HOP-62 NSCLC
  GI50: 0.568 µM
  TGI: > 100 µM
MDA-MB-435
  GI50: 3.88 µM
  TGI: > 100 µM
HS 578T breast
  GI50: 8.51 µM
  TGI: > 100 µM
T-47D breast
  GI50: 0.418 µM
  TGI: > 100 µM
CCRF-CEM leukemia
  GI50: 0.499 µM
  TGI: > 100 µM
OVCAR-3 ovarian
  GI50: 0.437 µM
  TGI: > 100 µM
HCT-15 colon
  GI50: 0.423 µM
  TGI: > 100 µM
MOLT-4 leukemia
  GI50: 0.637 µM
  TGI: > 100 µM
OVCAR-8 ovarian
  GI50: 0.618 µM
  TGI: > 100 µM
A549 NSCLC
  GI50: 2.08 µM
  TGI: > 100 µM
LOX IMVI melanoma
  GI50: 0.286 µM
  TGI: > 100 µM
UACC-62 melanoma
  GI50: 0.733 µM
  TGI: > 100 µM
NCI/ADR-RES ovarian
  GI50: 0.451 µM
  TGI: > 100 µM
